Results reported in ChEMBL document CHEMBL1146249, “Antiviral 2,5-disubstituted imidazo[4,5-c]pyridines: further optimization of anti-hepatitis C virus activity” (Bioorg Med Chem Lett, 2007).

Key:
[1] = Cytotoxicity against Huh 5-2 cells; format: cell-based; conditions: human
Hepatitis C virus = assay: Antiviral activity against HCV in Huh 5-2 cells; format: functional, organism-based, Hepacivirus hominis
[2] = Cytotoxicity against MDBK cells; format: cell-based, Bos taurus; conditions: cattle
[3] = test system: Bovine viral diarrhea virus 1; assay: Antiviral activity against BVDV in MDBK cells; format: functional, organism-based; conditions: Bovine viral diarrhea virus isolates and strains
[4] = Selectivity index, ratio of CC50 for Huh 5-2 cells to EC50 for HCV; format: functional
[5] = Selectivity index, ratio of CC50 for MDBK cells to EC50 for BVDV; format: functional

## Fc1ccccc1-c1nc2ccn(CCOc3ccccc3)cc-2n1
[1]
  CC50: 96 µM
Hepatitis C virus
  EC50: 48 µM
[2]
  CC50: > 104 µM
[3]
  EC50: 280 nM
[4]
  Ratio CC50/EC50: 2
[5]
  Ratio CC50/EC50: >371

## Fc1cccc(-c2nc3ccn(Cc4ccc(OC(F)(F)F)cc4)cc-3n2)c1F
[1]
  CC50: 81 µM
Hepatitis C virus
  EC50: 0.2 µM
[2]
  CC50: > 100 µM
[3]
  EC50: 200 nM
[4]
  Ratio CC50/EC50: 405
[5]
  Ratio CC50/EC50: >500
